Experimental data taken from patent US9598441B2, “Therapeutic compounds and methods” (Wayne State University, priority 2011, dated 2017).

What was measured:
[1] = target: T1, Gst-APC-2 (685-754) (Homo sapiens, UniProt Q9UJX6); test: In vitro binding of SMIs, immobilized Gst-APC-2 pre-incubated with CFM; conditions: WB with anti HA-tag
T1 construct: immobilizing the Gst-APC-2 (685-754) peptide with Gst-beads; made in house; host or cells: E. coli BL-21 (DE3)
Description: The CFM-4 and 5 were separately dissolved in DMSO to obtain a stock of 20-50 mM. For in vitro binding experiments we utilized affinity-purified Gst-APC-2 (685-754) and His-TAT-HA-tagged A-epitope (WT) peptide. Ten nanogram of the His-TAT-HA-tagged A-epitope (WT) peptide was first allowed to bind with Ni-NTA beads (ProBond, InVitrogen), and then the reaction was incubated with DMSO (control), 100 μM CFM-4, or 100 μM CFM-5 for 30 min at RT. The reactions were then subjected to three washes with the binding buffer, followed by incubation with 10 ng of affinity-purified Gst-APC-2 (685-754) peptide for 30 min at RT. The reactions were washed again for three times with PBS, eluted and analyzed on a SDS-PAGE followed by western blotting (WB) with anti-Gst antibodies. A similar strategy was performed by immobilizing the Gst-APC-2 (685-754) peptide with Gst-beads. The beads were washed, incubated with DMSO or the CFMs, and the reactions washed again. The reactions were then allowed to incubate with affinity purified A-epitope peptide, and the complexes analyzed by SDS-PAGE followed by WB with anti HA-tag antibodies.

[2] = system: immortalized, non-tumorigenic mammary epithelial MCF-10A cells; test: MTT cell viability assay, non-tumorigenic cells; format: cell-based, human
Description: Logarithmically growing cells were either untreated or treated with different agents for various time periods. The cells were lysed to prepare protein extracts. IP was carried out by incubating approximately 1 mg of the protein lysate with appropriate antibodies, and the immunoprecipitates or cell lysates were then electrophoresed on 9-12% SDS-polyacrylamide gels, and transferred to nitrocellulose membranes. The membranes were subsequently probed with various antibodies to determine expression/presence of the corresponding proteins. The cell growth inhibition was assessed by using MTT assay. Briefly, MTT (3-[4,5-Dimethylthiazol-2-yl]-2,5diphenyltetrazolium bromide) was dissolved in sterile 1×PBS to prepare a stock solution of 5 mg/ml. […] The assessment of the live cells was derived by measuring the absorbance of the converted dye at wavelength of 570 nm.
To test whether CFMs that interfere with CARP-1 binding with APC-2 modulate cell growth, HBC, colon, prostate, pancreatic cancer, MPM and lymphoma cells, as well as the immortalized, mammary epithelial MCF-10A cells were utilized. The cells were either treated with vehicle (DMSO) or various doses of the respective compound for a period of 72 h, and percent of live/viable cells for each compound was determined relative to the untreated controls as described in Methods.

[3] = system: CARP-1, cyclin B1, Cdc20, Cdh1, APC-2, CDKIs, caspases, p38, Bcl2 family proteins; test: Western blot of protein levels in treated cells; format: cell-based
Description: (§1) Logarithmically growing cells were either untreated or treated with different agents for various time periods. The cells were lysed to prepare protein extracts. IP was carried out by incubating approximately 1 mg of the protein lysate with appropriate antibodies, and the immunoprecipitates or cell lysates were then electrophoresed on 9-12% SDS-polyacrylamide gels, and transferred to nitrocellulose membranes. The membranes were subsequently probed with various antibodies to determine expression/presence of the corresponding proteins. The cell growth inhibition was assessed by using MTT assay. Briefly, MTT (3-[4,5-Dimethylthiazol-2-yl]-2,5diphenyltetrazolium bromide) was dissolved in sterile 1×PBS to prepare a stock solution of 5 mg/ml. The solution was subsequently filtered through 0.2 μm filter and stored at 2-8° C. 4−5×10^2 cells were seeded in 96-well plates. After 72 h incubation with or without different agents, MTT stock solution was added to each culture being assayed to equal one tenth the original culture volume, followed by incubation of cells at 37° C. for another 2 h. At the end of the incubation, the media was removed and cells were treated with 100-200 μl of DMSO to solubilize the dye. The assessment of the live cells was derived by measuring the absorbance of the converted dye at wavelength of 570 nm.

[4] = system: HBC cells transfected with scrambled, CARP-1 or Cdh1 SiRNAs; test: MTT assay in SiRNA-transfected cells; format: cell-based, human
Description: as §1
To test this possibility, cells were transfected with 100 nM each of the CARP-1 or the scrambled SiRNAs as detailed in methods. The SiRNA-transfected cells were then either untreated or treated with 20 μM CFM-4 for 24 h followed by determination of levels of CARP-1 and cyclin B1 proteins. […] In a separate experiment, cells were similarly transfected with CARP-1 SiRNA or scrambled SiRNAs followed by treatment with CFM-4 essentially as in FIG. 6A, and cell viabilities were determined by the MTT assay. […] In a separate experiment, cells were similarly transfected with Cdh1 SiRNA or scrambled SiRNAs followed by treatment with CFM-4 essentially as in FIG. 6C, and cell viabilities were determined by the MTT assay.

T1 sequence (Q9UJX6 685-754): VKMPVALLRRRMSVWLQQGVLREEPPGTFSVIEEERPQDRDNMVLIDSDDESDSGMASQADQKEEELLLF

## O=C1N(Cc2ccccc2Cl)c2ccccc2C12NN=C(c1ccccc1)S2 (stereo not drawn) [CFM-4, 1-(2-chlorobenzyl)-5′-phenyl-3′H-spiro[indoline-3,2′-[1,3,4]thiadiazol]-2-one]
[1]
  binding of immobilized Gst-APC-2 (685-754) with A-epitope peptide after pre-incubation with compound: failed to abolish its binding
[2]
  growth of MCF-10A cells (MTT): failed to attenuate growth
[3]
  APC-2 levels (WB): unaffected
  Bax expression (WB): failed to stimulate Bax expression
  Cdc20 levels (WB): significantly reduced
  Cdh1 levels (WB): modest decline
  cleavage of caspases (WB): cleavage of caspases 9 and 8
  tBid levels (WB): modest increase in tBid levels
[3]; 50 nM velcade 6 h or 24 h, 20 μM CFM-4 24 h
  CARP-1 levels (WB): robust increase in CARP-1 levels
[3]; 20 μM, from 6 h, sustained through 24 h
  p38 activation (WB): activation (phosphorylation) of p38
[3]; 0.5-1.0 h exposure
  levels of p21WAF1/CIP1 and p27KIP1 CDKIs (WB): elevated
[3]; 3 h and beyond
  levels of p21WAF1/CIP1 and p27KIP1 CDKIs (WB): decline
[3]; 6 h and subsequent treatment periods
  cyclin B1 levels (WB): depleted cyclin B1
[3]; 12 h or 24 h treatments
  levels of BimEL (WB): declined significantly
  levels of Bims isoform (WB): concomitant increase
[3]; alone or in combination with caspase inhibitors
  levels of E2 ubiquitin ligase UbCH10 (WB): not affected
[3]; cells transfected with scrambled SiRNAs
  cleavage of PARP1 (WB): robust cleavage of PARP1
[3]; different cells
  levels of Bcl2, BclXL, Noxa, and Puma proteins (WB): failed to modulate levels
[3]; drug (ADR or TAM)-resistant MCF-7 cells
  CARP-1 and cyclin B1 levels (WB): elevated CARP-1 and reduced cyclin B1 levels
[3]; prostate and pancreatic cancer cells
  cyclin B1 levels (WB): induced cyclin B1 loss
[3]; time course, 6 h and subsequent treatment periods
  CARP-1 levels (WB): stimulated CARP-1 levels
[4]; 20 μM CFM-4, 24 h
  growth of cells transfected with scrambled SiRNAs (MTT): suppressed growth
[4]; CARP-1 knockdown, 20 μM CFM-4, 24 h
  growth inhibition in CARP-1 SiRNA-transfected cells (MTT): blocked CFM-4-dependent inhibition of cell growth
[4]; Cdh1 knockdown
  growth inhibition in Cdh1 SiRNA-transfected cells (MTT): blocked CFM-4-dependent inhibition of HBC cell growth
